Measurements published in patent US20080254106A1 (SWITCH BIOTECH AG, priority 2004, published 2008).

Legend:
HaCaT keratinocytes = assay: Proliferation of HaCaT keratinocytes (BrDU incorporation); type: cell-based; details: Homo sapiens, 48 hours treatment, relative to FCS stimulated positive control, mean of at least four experiments
Method: As a negative control cells were incubated with KBM.
For this purpose 5×10^3 HaCaT keratinocytes were seeded into 60 wells of a 96 well-plate in 200 μl KBM/10% FCS each and incubated for 24 hours at 37° C. […] At the end of the second incubation period the medium was removed and cell proliferation was determined by BrDU incorporation (Roche, #1 669 915) according to the manufacturer's instructions. […] All other values were divided by the 100% value to obtain the relative percentage of proliferation. […] At least four independent experiments were performed.

[1] = test system: α-CD3 stimulated peripheral blood mononuclear cells; assay: Proliferation of anti-CD3 stimulated PBMCs/T cells ([3H]-thymidine incorporation); type: cell-based
Method: Peripheral blood mononuclear cells (PBMCs) were isolated by Ficoll-gradient centrifugation from peripheral blood. 1×10^6 PBMCs/ml were re-suspended in RPMI/10% fetal calf serum (FCS) in 96-well plates in a concentration of 2×10^5 cells/well. […] As positive and negative controls PBMCs were used, which were stimulated by anti-CD3-antibody and non-stimulated PBMCs, respectively. The final concentration of the solvent DMSO was 0.1% in all examined wells. After two further days of incubation the cells were incubated with 1 μCi per well [^3H]-thymidine for 18 hours. The cells were then recovered on glass fibre filters by using a Micro 96 Harvester (Skatron Instruments, Lier, Norway). The incorporated radioactivity was analysed with a Packard Matrix 9600 Counter (Can berra Packard, Schwadorf, Austria). The experiments were carried out with the blood of three different donors. […] All other values were divided by the 100% value to obtain the relative percentage of proliferation.

TNFα = assay: Secretion of TNFα of LPS stimulated THP-1 cells (ELISA); type: cell-based; details: 50 ng/ml LPS, six hours, concentration of 10 μmol/l and higher
Method: After stimulation with 50 ng/ml LPS the release of TNFα was determined.
After 2 h cells were stimulated with 50 ng/ml LPS. Six hours after LPS addition, culture supernatants were collected. TNFα concentrations were measured using an enzyme linked immunosorbent assay according to manufacturers protocol (R&D systems, #DTA00C). The TNFα concentrations reached after LPS stimulation without further treatment was set to 100%.

[2] = test system: transplanted human psoriatic skin biopsies; assay: Human psoriatic skin transplant SCID mouse model; type: in vivo, SCID mice; details: 50 mg/kg daily intraperitoneal, four weeks, in comparison to vehicle control animals
Method: SCID mice were transplanted with human psoriatic skin biopsies. Two weeks after surgery therapy started. […] After four weeks of therapy the mice were sacrificed and biopsies were taken. 4 μm slices of the biopsies were stained with Masson trichrom. Epidermal areas were calculated. […] Treatment started two weeks after the transplantation. […] For therapy, 300 μl of a 5 mg/ml solution was daily injected intraperitonally (=50 mg/kg). The control group was injected in the same way with 300 μl vehicle. After four weeks the animals were sacrificed. The biopsies were removed, histologically stained (Masson trichrom) and examined for changes of the epidermal area.

[3] = DTH (oxazolone) mouse ear swelling model; type: in vivo; details: topical 4%, 1%, 0.1% and 0.01% in acetone/olive oil, compared to placebo control
Method: A mixture of acetone/olive oil (4:1 vol/vol) is used as vehicle. Ear thickness is measured before start of the treatment (day 0), before challenge (day 6), and 24 h after challenge (d7, ear swelling response) (instrumentation e.g. Mitutoyo-Messgeräte GmbH). In addition, at the end of the experiment ear weights are determined by weighing 8 mm punch biopsies taken from both ears of each individual animal.

monoamine oxidase A = target: T1, monoamine oxidase A (Homo sapiens, UniProt P21397); details: proposed mechanism of action; cited from earlier work
T1 sequence (P21397 1-527): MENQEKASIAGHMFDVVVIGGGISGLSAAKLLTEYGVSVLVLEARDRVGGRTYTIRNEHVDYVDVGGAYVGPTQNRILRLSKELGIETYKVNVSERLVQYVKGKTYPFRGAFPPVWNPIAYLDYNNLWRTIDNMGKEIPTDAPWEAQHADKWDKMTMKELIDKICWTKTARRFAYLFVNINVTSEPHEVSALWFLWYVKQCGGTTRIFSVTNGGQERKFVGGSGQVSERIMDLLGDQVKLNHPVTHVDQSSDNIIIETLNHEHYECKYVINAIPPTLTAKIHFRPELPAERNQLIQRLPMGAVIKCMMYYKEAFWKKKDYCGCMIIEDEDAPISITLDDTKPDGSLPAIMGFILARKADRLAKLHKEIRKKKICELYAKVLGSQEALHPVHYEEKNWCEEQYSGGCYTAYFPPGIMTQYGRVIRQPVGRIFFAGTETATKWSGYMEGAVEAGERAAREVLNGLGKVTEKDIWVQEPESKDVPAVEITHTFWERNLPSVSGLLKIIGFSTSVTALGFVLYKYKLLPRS

noradrenaline reuptake = details: cited from earlier work
[4] = test system: 5-hydroxytryptamine reuptake; details: cited from earlier work
dopaminergic system = details: cited from earlier work
cholinergic system = details: cited from earlier work

Cc1ccc2c(c1)c1c3n2CCNC3CCC1 (centres unmarked) [Pirlindole, 2,3,3a,4,5,6-hexahydro-8-methyl-1H-pyrazino[3,2,1-jk]carbazole]
IC50 (HaCaT keratinocytes): 47 µM
IC50 ([1]; PBMC, 10 μg/ml soluble anti-CD3-antibody, [3H]-thymidine, three donors, mean): 16 µM
Inhibitory effect on proliferation in vitro ([1]; at a concentration of Pirlindole of 10 μmol/l (examples 2, 3)): inhibitory effect
Release of TNFα (TNFα): clear inhibition
Epidermal area of the transplants [2]: clearly decreased
Parameters of inflammation severity (ear weight, ear thickness) [3]: improvement of one or more parameters of inflammation severity
Inhibition of monoamine oxidase A (monoamine oxidase A): selective and reversible inhibition
Effect on noradrenaline reuptake (noradrenaline reuptake): inhibitory effect
Effect on 5-hydroxytryptamine reuptake [4]: inhibitory effect
Effect on the dopaminergic system (dopaminergic system): no effect
Effect on the cholinergic system (cholinergic system): no effect
